The values that follow come from US20230173071A1, “TREATMENT OF MYOPIA AND OTHER OCULAR CONDITIONS USING SINGLET OXYGEN GENERATED FROM DYES ACTIVATED BY NEAR-INFRARED LIGHT” (California Institute of Technology, priority 2018, published 2023).

Assay [1] deals with porcine sclera. Briefly: Young's Modulus measurement (Instron) of irradiated porcine sclera strips. On the set-up: species or system porcine (pig). Conditions: porcine sclera strips soaked in 2 mg/mL ICG, 0.01% BAC in D2O; 810 nm LED 200 mW, total 10 minutes. The procedure:
All Young's Modulus values were determined using an Instron equipped with screw side action tensile grips and a load cell rated for max 100 N. Rates of pulling were between 3 mm/minute and 5 mm/minute. The software calculated the Young's Modulus from the force vs. distance/time.
The treatment was also tested on a more biologically relevant sample—unscalded porcine (pig) eyes (Sierra For Medical Science). Eyes were cut around the globe to make a 1 cm×5-6 cm strip of pig sclera for testing. Measurements were accumulated over several batches of eyes. Storage solutions before treatment (irradiation) contained 20% Dextran (MW ˜40-45k) in D2O while post-treatment storage was Dulbecco's buffer with 20% Dextran (MW ˜40-45k). An ICG/BAC/D2O soak solution was made to the concentration of 2 mg/mL ICG and 0.01% BAC. Strips for treatment were soaked in the solution for 0.5-2 hours. Irradiation was carried out similarly to the bovine gelatin strips—810 nm LED, 200 mW, and a 1 cm×1 cm irradiation zone. To ensure sufficient irradiation without sample dehydration, irradiation duration was kept at 5 minutes but performed twice—i.e. the sample was moved down 1 cm every 5 minutes and then the process was repeated—in order to give a total of 10 minutes of irradiation. […] The Young's Modulus values were calculated by the software and compiled to compare untreated vs. treated strips. […]

Assay [2] deals with sclera of enucleated young rabbit eyes. The assay is described as follows: Eye expansion test - whole eye treatment, scleral area analysis. Conditions: for reduction in expansion, treated vs untreated: ICG with sodium iodide (NaI) additive in D2O; for reduction in expansion, fully treated eyes vs NIR light only treated eyes: ICG/NaI/D2O with NIR light. How it is done: Enucleated young rabbit eyes were provided from collaborators at University of California, San Francisco (UCSF). These were shipped overnight and used within 1-4 days. Upon arrival, they were stored in Dulbecco's buffer in a 4° C. refrigerator until use. They were trimmed of fat and muscle to provide a smooth surface for easy identification of changes to the size. All irradiations used an 810 nm LED (Thor) set to a power of ˜200 mW.
Untreated eyes received no further modification and were stored in Dulbecco's buffer in the refrigerator until use. Eyes to be treated had their epithelial layer on the cornea removed. An ethanol-soaked Kim wipe was applied to the cornea for two minutes and then a scalpel blade was used to scrape the layer off. Removal was confirmed using a fluorescein strip and long UV light. […] The eye was placed cornea up on a damp (D2O) gauze pad and then placed on a 10 mL beaker. The LED was placed above the eye to irradiate down for 10 minutes with 5-15 drops of either the soaking solution or D2O being applied every 2 minutes to keep the sample hydrated. Once completed, the irradiation process was repeated for the reverse side of the eye (by the retina), then the eye on its side (half cornea & sclera), and finally on the reverse side of the sideways eye. This was a total of four 10 minute irradiations aimed to treat the whole eye.
The eye expansion setup followed the protocol outlined below. The eyes were placed on a stand and 30 gauge needle was inserted from underneath. The chamber was filled with Dulbecco's buffer and two different antibiotics mixtures—an ophthalmic solution of Trimethoprim Sulfate and Polymyxin B Sulfate and an ophthalmic ointment of Neomycin and Polmyxin B Sulfates and Bacitracin Zinc. A low pressure (˜22 mm Hg) was applied for one hour to equilibrate the eyes prior to applying a higher pressure (˜85 mm Hg) for the experiment. This is done by raising an IV bag to a predetermined height above the eye chamber. The higher pressure was applied from 12-36 hours (or until rupture) depending on the experiment. Two photos were taken every 15 minutes during both the low and high-pressure applications. […]
Image J was used to calculate the scleral area for comparison. […] Measured scleral areas where then converted to percent change from the initial time point (when the higher pressure was first applied). These values were averaged and standard errors calculated for comparison.
To evaluate the ability of ICG to crosslink the sclera, a similar set of eye expansion tests was performed. […] To quantify this observation, the area of the sclera was calculated using Image J for the initial and 12-hour time points (FIGS. 7(A-B)). Expansion from the initial time point was calculated and compared as a percent.

SMILES strings stand for the structures.

As for `CC1(C)C(/C=C/C=C/C=C/C=C2\N(CCCCS(=O)(=O)O)c3ccc4ccccc4c3C2(C)C)=[N+](CCCCS(=O)(=O)[O-])c2ccc3ccccc3c21` [ICG, indocyanine green], the “increase of the Young's Modulus, irradiated (treated) vs non-irradiated (untreated) sample” value in assay [1] came out at 21%. Besides, in assay [2] (12 hour time point), the “reduction in expansion, treated vs untreated” value is reported as approximately 62% and the “reduction in expansion, fully treated eyes vs NIR light only treated eyes” value was approximately 69%. Besides, in assay [2] (24 hour time point), the “reduction in expansion, treated vs untreated” value worked out at 70% and the “reduction in expansion, fully treated eyes vs NIR light only treated eyes” value is approximately 72%.
